According to the NIST ThermoML archive (doi:10.1021/je900050z):
“And” between values parts separate entries of the source, which are not always exact repeats. Equal entries are not always repeated.

Conditions: Liquid

CCC(C)(C)O [2-methylbutan-2-ol]
Conditions | vapor or sublimation pressure [kPa]
303.29 K | 2.81
303.47 K | 2.85
304.67 K | 3.16
305.75 K | 3.4
305.9 K | 3.43
308.35 K | 4.08
309.12 K | 4.31
309.86 K | 4.55
310.61 K | 4.8
311.64 K | 5.15
312.47 K | 5.43
313.38 K | 5.77
314.17 K | 6.08
315.44 K | 6.59
317.09 K | 7.31
318.64 K | 7.99
319.37 K | 8.36
319.86 K | 8.61
320.32 K | 8.84
321.32 K | 9.36
322.44 K | 9.99
323.15 K | 10.41
323.27 K | 10.49
324.11 K | 11.03
324.91 K | 11.51
325.71 K | 12.03
326.45 K | 12.55
327.18 K | 13.05
327.62 K | 13.36
328.41 K | 13.97
329.33 K | 14.65
330.15 K | 15.31
330.98 K | 15.97
331.8 K | 16.67
332.46 K | 17.29
333.15 K | 17.87
333.26 K | 17.99
333.99 K | 18.65
334.69 K | 19.32
335.45 K | 20.03
336.05 K | 20.67
336.68 K | 21.31
337.31 K | 21.96
337.97 K | 22.63
338.69 K | 23.47
339.15 K | 23.97
339.68 K | 24.67
340.31 K | 25.35
340.83 K | 26
341.39 K | 26.67
341.9 K | 27.33
342.4 K | 27.97
342.92 K | 28.67
343.15 K | 28.95
343.42 K | 29.31
343.94 K | 30.01
344.47 K | 30.67
344.91 K | 31.35
345.39 K | 32.07
345.78 K | 32.67
346.35 K | 33.48
347.18 K | 34.67
347.57 K | 35.32
348.07 K | 36.07
348.49 K | 36.71
348.88 K | 37.36
349.27 K | 38.01
349.64 K | 38.64
350.08 K | 39.32
350.49 K | 39.96
350.83 K | 40.64
351.2 K | 41.31
351.67 K | 42.08
351.95 K | 42.65
352.3 K | 43.35
352.73 K | 44
353.02 K | 44.65
353.15 K | 44.87
353.44 K | 45.35
353.73 K | 45.97
354.1 K | 46.63
354.41 K | 47.28
354.72 K | 47.95
355.11 K | 48.65
355.43 K | 49.31
355.74 K | 49.95
356.09 K | 50.75
356.45 K | 51.36
356.69 K | 52
356.99 K | 52.61
357.35 K | 53.32
357.67 K | 54.03
357.96 K | 54.67
358.25 K | 55.35
358.47 K | 55.95
358.85 K | 56.63
359.15 K | 57.33
359.48 K | 58
359.68 K | 58.59
360.01 K | 59.27
360.21 K | 59.95
360.53 K | 60.59
360.83 K | 61.27
361.11 K | 61.99
361.4 K | 62.61
361.72 K | 63.35
362.01 K | 64.04
362.24 K | 64.67
362.54 K | 65.35
362.84 K | 66
363.07 K | 66.71
363.56 K | 67.92
364.15 K | 69.21
364.62 K | 70.64
365.21 K | 71.99
365.73 K | 73.37
366.16 K | 74.75
366.67 K | 76.05
367.11 K | 77.28
367.53 K | 78.63
368.02 K | 79.97
368.44 K | 81.28
368.83 K | 82.53
369.31 K | 83.93
369.73 K | 85.28
370.15 K | 86.63
370.56 K | 87.97
370.99 K | 89.39
371.39 K | 90.76
371.77 K | 91.99
372.16 K | 93.31
372.56 K | 94.67
372.95 K | 95.99
373.34 K | 97.39
373.73 K | 98.71

CCC(C)O (centres undefined) [butan-2-ol]
Conditions | vapor or sublimation pressure [kPa]
314.47 K | 6.08
315.36 K | 6.43
316.21 K | 6.81
317.61 K | 7.45
318.57 K | 7.92
319.37 K | 8.35
319.58 K | 8.45
320.18 K | 8.77
321.05 K | 9.23
322.03 K | 9.8
322.68 K | 10.19
323.15 K | 10.48
323.41 K | 10.64
324.05 K | 11.04
324.72 K | 11.47
325.27 K | 11.84
325.92 K | 12.31
326.66 K | 12.81
327.32 K | 13.16
328.28 K | 14.03
329.05 K | 14.61
329.91 K | 15.31
330.49 K | 15.79
331.11 K | 16.31
331.58 K | 16.71
332.17 K | 17.25
332.81 K | 17.87
333.15 K | 18.2
333.28 K | 18.33
333.65 K | 18.68
334.23 K | 19.24
334.69 K | 19.71
335.19 K | 20.2
335.69 K | 20.71
336.28 K | 21.33
336.77 K | 21.85
337.23 K | 22.35
337.72 K | 22.87
338.08 K | 23.28
338.6 K | 23.87
339.07 K | 24.43
339.5 K | 24.95
339.9 K | 25.43
340.34 K | 25.97
340.95 K | 26.79
341.4 K | 27.36
341.87 K | 27.99
342.34 K | 28.63
342.89 K | 29.37
343.15 K | 29.76
343.32 K | 29.97
343.81 K | 30.67
344.25 K | 31.31
344.71 K | 31.99
345.14 K | 32.63
345.6 K | 33.33
346.02 K | 33.99
346.45 K | 34.67
346.86 K | 35.32
347.28 K | 36.01
347.65 K | 36.63
348.06 K | 37.31
348.45 K | 37.99
348.85 K | 38.64
349.21 K | 39.29
349.58 K | 39.95
350.15 K | 40.97
350.75 K | 42.05
351.25 K | 43.03
351.74 K | 43.96
352.26 K | 44.97
353.08 K | 46.6
353.15 K | 46.75
353.6 K | 47.65
354.06 K | 48.61
354.53 K | 49.61
355 K | 50.63
355.45 K | 51.63
355.81 K | 52.39
356.23 K | 53.33
356.8 K | 54.63
357.37 K | 55.96
357.99 K | 57.41
358.5 K | 58.67
359.06 K | 60.03
359.62 K | 61.41
360.13 K | 62.73
360.61 K | 63.97
361.1 K | 65.29
361.64 K | 66.71
362.1 K | 67.99
362.63 K | 69.43
363.07 K | 70.69
363.57 K | 72.12
364 K | 73.36
364.48 K | 74.72
364.9 K | 76
365.33 K | 77.31
365.76 K | 78.65
366.18 K | 79.95
366.63 K | 81.35
367.04 K | 82.63
367.47 K | 84.03
367.88 K | 85.39
368.27 K | 86.71
368.68 K | 88.05
369.08 K | 89.41
369.43 K | 90.67
369.79 K | 91.91
370.19 K | 93.33
370.56 K | 94.44
370.94 K | 96
371.32 K | 97.35
371.65 K | 98.59

C1CCCCC1 [cyclohexane]
Conditions | vapor or sublimation pressure
295.42 K | 11.15 kPa
295.45 K | 11.16 kPa
295.46 K | 11.17 kPa
295.72 K | 11.33 kPa
295.75 K | 11.35 kPa
296.22 K | 11.63 kPa
297.08 K | 12.15 kPa
297.13 K | 12.16 kPa and 12.17 kPa
297.86 K | 12.61 kPa
297.99 K | 12.71 kPa
298.83 K | 13.23 kPa
299.75 K | 13.8 kPa
299.77 K | 13.81 kPa
300.85 K | 14.52 kPa
302.63 K | 15.71 kPa
303.02 K | 16.03 kPa
303.15 K | 16.11 kPa
304.38 K | 17.04 kPa
304.4 K | 17.05 kPa
304.42 K | 17.07 kPa
306.05 K | 18.33 kPa
306.4 K | 18.6 kPa
307.45 K | 19.4 kPa
308.06 K | 19.91 kPa
309.5 K | 21.12 kPa
310.98 K | 22.47 kPa
312.48 K | 23.89 kPa
313.15 K | 24.56 kPa
313.84 K | 25.25 kPa
315.01 K | 26.47 kPa
315.26 K | 26.67 kPa
316.32 K | 27.88 kPa
317.51 K | 29.23 kPa
318.31 K | 30.09 kPa
318.67 K | 30.56 kPa
319.81 K | 31.93 kPa
320.87 K | 33.27 kPa
321.91 K | 34.59 kPa
321.99 K | 34.69 kPa
322.94 K | 35.95 kPa
323.15 K | 36.27 kPa
323.44 K | 36.59 kPa
323.88 K | 37.23 kPa
323.95 K | 37.33 kPa
324.83 K | 38.56 kPa
326.12 K | 40.45 kPa
326.68 K | 41.25 kPa
327.61 K | 42.68 kPa
328.43 K | 43.97 kPa
329.32 K | 45.4 kPa
329.35 K | 45.43 kPa
330.05 K | 46.59 kPa
330.94 K | 48.07 kPa
331.68 K | 49.32 kPa
332.02 K | 49.89 kPa
332.41 K | 50.6 kPa
333.11 K | 51.87 kPa
333.15 K | 51.92 kPa
333.83 K | 53.15 kPa
333.86 K | 53.19 kPa
334.53 K | 54.47 kPa
335.26 K | 55.85 kPa
335.64 K | 56.56 kPa
335.95 K | 57.19 kPa
336.7 K | 58.63 kPa
337.36 K | 59.96 kPa
338.06 K | 61.39 kPa and 61.4 kPa
338.65 K | 62.63 kPa
338.67 K | 62.64 kPa
339.29 K | 63.95 kPa
339.92 K | 65.29 kPa
340.54 K | 66.63 kPa
341.12 K | 67.95 kPa
341.72 K | 69.29 kPa
342.32 K | 70.65 kPa
342.88 K | 71.93 kPa
343.15 K | 72.6 kPa
343.43 K | 73.25 kPa
344.05 K | 74.73 kPa
344.55 K | 75.96 kPa
345.08 K | 77.27 kPa
345.69 K | 78.76 kPa
346.18 K | 80 kPa
346.67 K | 81.25 kPa
347.18 K | 82.56 kPa and 82.57 kPa
347.69 K | 83.89 kPa
348.19 K | 85.23 kPa
348.65 K | 86.49 kPa
349.19 K | 87.93 kPa
349.72 K | 89.43 kPa
350.18 K | 90.64 kPa
350.25 K | 90.87 kPa
350.67 K | 92.07 kPa
351.1 K | 93.27 kPa
351.57 K | 94.63 kPa
352.01 K | 95.92 kPa
352.45 K | 97.23 kPa
352.9 K | 98.57 kPa
353.15 K | 99.31 kPa
353.36 K | 99.95 kPa
